Where two headings read alike, the source gives them in different places.
Assays:
BRAF V600E = target: T1, BRAF V600E (Homo sapiens, UniProt P15056, V600E); assay: Cellular assay of target protein degradation, T-Rex 293 cells stably transfected with HA-BRAF_V600E (HA immunofluorescence, high content imaging); format: cell-based
T1 construct: expressed in transfected cells
Method in brief: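 Doxycycline-induced (1 ng/mL) cells were treated 24 h at 37 °C with compound at 1 μM to 0.1 nM final in 0.1% DMSO. After fixation, permeabilization and blocking, anti-HA staining was imaged by high-content reading; DC50 and Dmax (% of control) were derived.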

BRAF G466V = target: T2, BRAF G466V (Homo sapiens, UniProt P15056, G466V); assay: Cellular assay of target protein degradation, T-Rex 293 cells stably transfected with HA-BRAF G466V (HA immunofluorescence, high content imaging); format: cell-based
T2 construct: expressed in transfected cells
T2 sequence (P15056 whole entry G466V): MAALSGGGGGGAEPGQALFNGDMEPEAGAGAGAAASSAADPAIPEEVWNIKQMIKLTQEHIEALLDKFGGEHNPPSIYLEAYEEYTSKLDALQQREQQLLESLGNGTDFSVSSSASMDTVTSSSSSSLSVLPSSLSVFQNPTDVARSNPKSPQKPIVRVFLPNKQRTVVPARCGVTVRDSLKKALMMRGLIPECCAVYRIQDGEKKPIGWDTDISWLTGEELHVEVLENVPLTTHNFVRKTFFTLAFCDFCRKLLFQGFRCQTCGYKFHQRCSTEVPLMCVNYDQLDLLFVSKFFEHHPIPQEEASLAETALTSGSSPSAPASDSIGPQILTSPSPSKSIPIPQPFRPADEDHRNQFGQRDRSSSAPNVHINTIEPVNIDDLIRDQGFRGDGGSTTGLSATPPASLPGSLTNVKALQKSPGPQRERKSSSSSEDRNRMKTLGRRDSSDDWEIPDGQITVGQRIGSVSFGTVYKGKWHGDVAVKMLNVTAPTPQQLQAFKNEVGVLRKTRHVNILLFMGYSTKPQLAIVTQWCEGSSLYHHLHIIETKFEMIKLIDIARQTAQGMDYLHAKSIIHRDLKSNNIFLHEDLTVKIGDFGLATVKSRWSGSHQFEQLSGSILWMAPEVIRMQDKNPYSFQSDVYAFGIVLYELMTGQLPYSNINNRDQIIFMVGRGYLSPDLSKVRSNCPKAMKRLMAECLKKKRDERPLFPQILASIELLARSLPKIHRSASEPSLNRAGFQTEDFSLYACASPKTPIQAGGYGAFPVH
Method in brief: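 Cells expressing doxycycline-induced (0.75 ng/mL) HA-BRAF G466V were treated with compound at 30 nM to 3 pM in 0.1% DMSO for 24 hours at 37° C. After fixation and permeabilization, HA was immunostained and quantified by high content imaging to derive DC50 and Dmax.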

[1] = half maximal degradation, T-Rex 293 HA-BRAF V600E; read-out: BRaf V600E DC50
[2] = maximum degradation observed, T-Rex 293 HA-BRAF V600E
[3] = half maximal degradation, T-Rex 293 HA-BRAF G466V; read-out: BRaf G466V DC50
[4] = maximum degradation observed, T-Rex 293 HA-BRAF G466V

T1 sequence (P15056 whole entry V600E): as the sequence (P15056 whole entry G466V) above, with V466G, V600E counted along it

Row | SMILES | DC50 (BRAF V600E; [1]) | Dmax (BRAF V600E; [2]) | DC50 (BRAF G466V; [3]) | Dmax (BRAF G466V; [4]) | DC50 (BRAF V600E; read-out: BRaf V600E DC50; half maximal degradation, T-Rex 293 HA-BRAF V600E) | DC50 (BRAF G466V; read-out: BRaf G466V DC50; half maximal degradation, T-Rex 293 HA-BRAF G466V)
1 | O=C1CCC(N2Cc3cc(C4CCN(CC5CCN(c6ccc(-c7cnc8[nH]cc(C(=O)c9c(F)ccc(NS(=O)(=O)N%10CCCC%10)c9F)c8c7)cc6)CC5)CC4)ccc3C2=O)C(=O)N1 (stereo not shown) [Compound 177, N-[3-(5-{4-[4-({4-[2-(2,6-dioxopiperidin-3-yl)-1-oxo-2,3-dihydro-1H-isoindol-5-yl]piperidin-1-yl}methyl)piperidin-1-yl]phenyl}-1H-pyrrolo[2,3-b]pyridine-3-carbonyl)-2,4-difluorophenyl]pyrrolidine-1-sulfonamide] | < 5 nM | 35 to 70% | < 1 nM | > 70% | – | –
2 | O=C1CCC(N2Cc3cc(N4CCC(O)(CN5CC6(C5)CN(c5ccc(-c7cnc8[nH]cc(C(=O)c9c(F)ccc(NS(=O)(=O)N%10CC[C@@H](F)C%10)c9F)c8c7)cc5)C6)CC4)ccc3C2=O)C(=O)N1 (stereo partly drawn) [Compound 142, (3R)—N-[3-[5-[4-[6-[[1-[2-(2,6-dioxo-3-piperidyl)-1-oxo-isoindolin-5-yl]-4-hydroxy-4-piperidyl]methyl]-2,6-diazaspiro[3.3]heptan-2-yl]phenyl]-1H-pyrrolo[2,3-b]pyridine-3-carbonyl]-2,4-difluoro-phenyl]-3-fluoro-pyrrolidine-1-sulfonamide] | 5 to 50 nM | 35 to 70% | 1 to 10 nM | > 70% | – | –
3 | O=C1CCC(N2Cc3cc(N4CCN(CCCCCc5ccc(-c6cnc7[nH]cc(C(=O)c8c(F)ccc(NS(=O)(=O)N9CC[C@@H](F)C9)c8F)c7c6)cc5)CC4)ccc3C2=O)C(=O)N1 (stereo partly drawn) [Compound 318, (3R)-N-(3-{5-[4-(5-{4-[2-(2,6-dioxopiperidin-3-yl)-1-oxo-2,3-dihydro-1H-isoindol-5-yl]piperazin-1-yl}penyl)phenyl]-1H-pyrrolo[2,3-b]pyridine-3-carbonyl}-2,4-difluorophenyl)-3-fluoropyrrolidine-1-sulfonamide] | 50 to 500 nM | 35 to 70% | 10 to 30 nM | 35 to 70% | – | –
4 | O=C1CC[C@H](N2Cc3cc(C[C@@H](O)CN4CCN(c5ccc(-c6cnc7[nH]cc(C(=O)c8c(F)ccc(NS(=O)(=O)N9CC[C@@H](F)C9)c8F)c7c6)cc5)CC4)ccc3C2=O)C(=O)N1 [Compound 82, (3R)-N-{3-[5-(4-{4-[(2R)-3-{2-[(3S)-2,6-dioxopiperidin-3-yl]-1-oxo-2,3-dihydro-1H-isoindol-5-yl}-2-hydroxypropyl]piperazin-1-yl}phenyl)-1H-pyrrolo[2,3-b]pyridine-3-carbonyl]-2,4-difluorophenyl}-3-fluoropyrrolidine-1-sulfonamide] | 5 to 50 nM | 35 to 70% | > 30 nM | – | – | –
5 | COc1cc(N2CC3(CN(CC4CCN(c5ccc(-c6cnc7[nH]cc(C(=O)c8c(F)ccc(NS(=O)(=O)N9CC[C@@H](F)C9)c8F)c7c6)cc5)CC4)C3)C2)cc(F)c1C(=O)N[C@H]1CCC(=O)NC1=O [Compound 347, 4-(6-{[1-(4-{3-[2,6-difluoro-3-({[(3R)-3-fluoropyrrolidin-1-yl]sulfonyl}amino)benzoyl]-1H-pyrrolo[2,3-b]pyridin-5-yl}phenyl)piperidin-4-yl]methyl}-2,6-diazaspiro[3.3]heptan-2-yl)-N-[(3S)-2,6-dioxopiperidin-3-yl]-2-fluoro-6-methoxybenzamide] | 5 to 50 nM | 35 to 70% | 1 to 10 nM | > 70% | – | –
6 | O=C1CCC(N2Cc3cc(N4CCC(CC5CCN(c6ccc(-c7cnc8[nH]cc(C(=O)c9c(F)ccc(NS(=O)(=O)N%10CC[C@@H](F)C%10)c9F)c8c7)cc6)CC5)CC4)ccc3C2=O)C(=O)N1 (stereo partly drawn) [Compound 181, (3R)-N-[3-(5-{4-[4-({1-[2-(2,6-dioxopiperidin-3-yl)-1-oxo-2,3-dihydro-1H-isoindol-5-yl]piperidin-4-yl}methyl)piperidin-1-yl]phenyl}-1H-pyrrolo[2,3-b]pyridine-3-carbonyl)-2,4-difluorophenyl]-3-fluoropyrrolidine-1-sulfonamide] | – | < 35% | – | 35 to 70% | 50 to 500 nM | 10 to 30 nM
7 | O=C1CCC(N2Cc3cc(N4CCC(CN5CCN(c6ccc(-c7cnc8[nH]cc(C(=O)c9c(F)ccc(NS(=O)(=O)N%10CC[C@@H](F)C%10)c9F)c8c7)cc6F)CC5)CC4)ccc3C2=O)C(=O)N1 (stereo partly drawn) [Compound 11, (3R)-N-[3-(5-{4-[4-({1-[2-(2,6-dioxopiperidin-3-yl)-1-oxo-2,3-dihydro-1H-isoindol-5-yl]piperidin-4-yl}methyl)piperazin-1-yl]-3-fluorophenyl}-1H-pyrrolo[2,3-b]pyridine-3-carbonyl)-2,4-difluorophenyl]-3-fluoropyrrolidine-1-sulfonamide] | 5 to 50 nM | 35 to 70% | < 1 nM | 35 to 70% | – | –
8 | O=C1CCC(N2Cc3cc(C4CCN(C[C@@H]5[C@H]6CN(c7ccc(-c8cnc9[nH]cc(C(=O)c%10c(F)ccc(NS(=O)(=O)N%11CC[C@@H](F)C%11)c%10F)c9c8)cc7)C[C@@H]56)CC4)ccc3C2=O)C(=O)N1 (stereo partly drawn) [Compound 179, (3R)-N-[3-(5-{4-[(1R,5S,6S)-6-({4-[2-(2,6-dioxopiperidin-3-yl)-1-oxo-2,3-dihydro-1H-isoindol-5-yl]piperidin-1-yl}methyl)-3-azabicyclo[3.1.0]hexan-3-yl]phenyl}-1H-pyrrolo[2,3-b]pyridine-3-carbonyl)-2,4-difluorophenyl]-3-fluoropyrrolidine-1-sulfonamide] | 5 to 50 nM | 35 to 70% | 1 to 10 nM | > 70% | – | –
9 | O=C1CCC(N2Cc3cc(N4CC5(CC(Oc6ccc(-c7cnc8[nH]cc(C(=O)c9c(F)ccc(NS(=O)(=O)N%10CC[C@@H](F)C%10)c9F)c8c7)cc6)C5)C4)ccc3C2=O)C(=O)N1 (stereo partly drawn) [Compound 1, (3R)-N-(3-{5-[4-({2-[2-(2,6-dioxopiperidin-3-yl)-1-oxo-2,3-dihydro-1H-isoindol-5-yl]-2-azaspiro[3.3]heptan-6-yl}oxy)phenyl]-1H-pyrrolo[2,3-b]pyridine-3-carbonyl}-2,4-difluorophenyl)-3-fluoropyrrolidine-1-sulfonamide] | 5 to 50 nM | 35 to 70% | 1 to 10 nM | 35 to 70% | – | –
10 | C[C@@H](c1ncc(-c2cnc3[nH]cc(C(=O)c4c(F)ccc(NS(=O)(=O)N5CC[C@@H](F)C5)c4F)c3c2)cn1)N1CCN(CC2CCN(c3ccc4c(c3)CN([C@H]3CCC(=O)NC3=O)C4=O)CC2)CC1 [Compound 289, (3R)-N-[3-(5-{2-[(1S)-1-{4-[(1-{2-[(3S)-2,6-dioxopiperidin-3-yl]-1-oxo-2,3-dihydro-1H-isoindol-5-yl}piperidin-4-yl)methyl]piperazin-1-yl}ethyl]pyrimidin-5-yl}-1H-pyrrolo[2,3-b]pyridine-3-carbonyl)-2,4-difluorophenyl]-3-fluoropyrrolidine-1-sulfonamide] | 50 to 500 nM | 35 to 70% | 10 to 30 nM | 35 to 70% | – | –
11 | COc1cc(N2CCC(CN3CCC4(CC3)CCN(c3ccc(-c5cnc6[nH]cc(C(=O)c7c(F)ccc(NS(=O)(=O)N8CC[C@@H](F)C8)c7F)c6c5)cc3)CC4)CC2)cc2c1C(=O)N(C1CCC(=O)NC1=O)C2 (stereo partly drawn) [Compound 6, (3R)-N-[3-(5-{4-[9-({1-[2-(2,6-dioxopiperidin-3-yl)-7-methoxy-1-oxo-2,3-dihydro-1H-isoindol-5-yl]piperidin-4-yl}methyl)-3,9-diazaspiro[5.5]undecan-3-yl]phenyl}-1H-pyrrolo[2,3-b]pyridine-3-carbonyl)-2,4-difluorophenyl]-3-fluoropyrrolidine-1-sulfonamide] | < 5 nM | 35 to 70% | 1 to 10 nM | 35 to 70% | – | –
